What is called IC50 is the concentration at which inhibition is half-maximal. A lower IC50 goes with greater potency in that assay.

Consider twelve compounds from US20220251141A1, “IMMUNOMODULATORS” (Bristol-Myers Squibb Company, priority 2019, published 2022).

Numbered stars: 1 amine (or outer) side, 2 acyl side, 3 side chain; on linkers, the order of the positions; unused ones are H or OH. Bridge positions count the residues as written; N and C are the ends. Square brackets hold non-standard residues; d marks the D form. Peptide text beside a SMILES is read from it. * marks the point of attachment. Trp(1-CH2CO2Me) = COC(=O)Cn1cc(C[C@H](N)C(=O)O)c2ccccc21; Trp(1-CH2COOH) = N[C@@H](Cc1cn(CC(=O)O)c2ccccc12)C(=O)O; X5 = CN(C)S(=O)(=O)NCC[C@H](N[*:1])C(=O)[*:2]; X4 = CN(C)S(=O)(=O)NC[C@H](N[*:1])C(=O)[*:2]; X15 = CCNC(=S)NCC[C@H](N[*:1])C(=O)[*:2]; X12 = CNC(=S)NCC[C@H](N[*:1])C(=O)[*:2]; X14 = CCNC(=S)NC[C@H](N[*:1])C(=O)[*:2]; X11 = CNC(=S)NC[C@H](N[*:1])C(=O)[*:2]; Dab(CONH2) = NC(=O)NCC[C@H](N)C(=O)O; X9 = N#CNCC[C@H](N[*:1])C(=O)[*:2]; X8 = N#CNC[C@H](N[*:1])C(=O)[*:2]; Hexyloxycarbonyl = CCCCCCOC(=O)*; Hyp = O=C(O)[C@@H]1C[C@@H](O)CN1; NMeNle = CCCC[C@H](NC)C(=O)O; NMeA = CN[C@@H](C)C(=O)O; Dab = NCC[C@H](N)C(=O)O; Dap = NC[C@H](N)C(=O)O; Boc = CC(C)(C)OC(=O)*; X10 = CC(C)(C)SC(=O)*; Moc = COC(=O)*

This experiment concerns the target T1, PD-1/PD-L1 (Homo sapiens, UniProt Q9NZQ7).
T1 construct: TVMV protease site linker (C); made in house; host or cells: HEK293T cells
Briefly: PD-1/PD-L1 Homogenous Time-Resolved Fluorescence (HTRF) binding assay. As to conditions: PD-L1-His 10 nM final, PD-1-Ig 20 nM final; inhibitors pre-incubated with PD-L1-His for 15 m. From the text:
The ability of the compounds of formula (I) to bind to PD-L1 was investigated using a PD-1/PD-L1 Homogenous Time-Resolved Fluorescence (HTRF) binding assay.
The interaction of PD-1 and PD-L1 can be assessed using soluble, purified preparations of the extracellular domains of the two proteins. The PD-1 and PD-L1 protein extracellular domains were expressed as fusion proteins with detection tags, for PD-1, the tag was the Fc portion of Immunoglobulin (PD-1-Ig) and for PD-L1 it was the 6 histidine motif (PD-L1-His). All binding studies were performed in an HTRF assay buffer consisting of dPBS supplemented with 0.1% […] bovine serum albumin and 0.05% (v/v) Tween-20. For the h/PD-L1-His binding assay, inhibitors were pre-incubated with PD-L1-His (10 nM final) for 15 m in 4 μl of assay buffer, followed by addition of PD-1-Ig (20 nM final) in 1 μl of assay buffer and further incubation for 15 m. HTRF detection was achieved using europium cryptate-labeled anti-Ig (1 nM final) and allophycocyanin (APC) labeled anti-His (20 nM final). Antibodies were diluted in HTRF detection buffer and 5 μl was dispensed on top of the binding reaction. The reaction mixture was allowed to equilibrate for 30 minutes and the resulting signal (665 nm/620 nm ratio) was obtained using an EnVision fluorometer. Additional binding assays were established between the human proteins PD-1-Ig/PD-L2-His (20 & 5 nM, respectively) and CD80-His/PD-L1-Ig (100 & 10 nM, respectively).
Recombinant Proteins: Human PD-1 (25-167) with a C-terminal human Fc domain of immunoglobulin G (Ig) epitope tag [hPD-1 (25-167)-3S-IG] and human PD-L1 (18-239) with a C-terminal His epitope tag [hPD-L1(18-239)-TVMV-His] were expressed in HEK293T cells and purified sequentially by Protein A affinity chromatography and size exclusion chromatography. Human PD-L2-His and CD80-His was obtained through commercial sources.
Table 3 lists the IC50 values for representative examples of this disclosure measured in the PD-1/PD-L1 Homogenous Time-Resolved Fluorescence (HTRF) binding assay.
For orientation: In TR-FRET formats the signal depends on donor and acceptor labels being close together.
The compound `CCCCCCOC(=O)NCC[C@@H]1NC(=O)[C@H](Cc2c[nH]c3ccccc23)NC(=O)[C@@H]2C[C@@H](O)CN2C(=O)[C@H](CC(C)C)NC(=O)[C@H](CNC(=O)OCCCCCC)NC(=O)[C@@H]2CCCN2C(=O)[C@H](CC(N)=O)NC(=O)[C@H](C)N(C)C(=O)[C@H](Cc2ccc(O)cc2)NC(=O)CSC[C@@H](C(=O)NCC(N)=O)NC(=O)[C@H](CC(C)C)NC(=O)[C@H](CCCC)N(C)C(=O)[C@H](CCCC)N(C)C(=O)[C@H](Cc2cn(CC(=O)OC)c3ccccc23)NC1=O` [Example 1016] ({CH2CO}-Y[NMeA]NP[Dap](Hexyloxycarbonyl)L[Hyp]W[Dab](Hexyloxycarbonyl)[Trp(1-CH2CO2Me)][NMeNle][NMeNle]LCG-NH2; thioether N-14) gave an IC50 of 12 nM.

For `CCCC[C@H]1C(=O)N(C)[C@@H](CCCC)C(=O)N[C@@H](CC(C)C)C(=O)N[C@H](C(=O)NCC(N)=O)CSCC(=O)N[C@@H](Cc2ccc(O)cc2)C(=O)N(C)[C@@H](C)C(=O)N[C@@H](CC(N)=O)C(=O)N2CCC[C@H]2C(=O)N[C@@H](CNC(=O)OC)C(=O)N[C@@H](CC(C)C)C(=O)N2C[C@H](O)C[C@H]2C(=O)N[C@@H](Cc2c[nH]c3ccccc23)C(=O)N[C@@H](CCNC(=O)OC)C(=O)N[C@@H](Cc2cn(CC(=O)OC)c3ccccc23)C(=O)N1C` [Example 1017] ({CH2CO}-Y[NMeA]NP[Dap](Moc)L[Hyp]W[Dab](Moc)[Trp(1-CH2CO2Me)][NMeNle][NMeNle]LCG-NH2; thioether N-14), the IC50 was found to be 5.9 nM.

In the case of `CCCC[C@H]1C(=O)N(C)[C@@H](CCCC)C(=O)N[C@@H](CC(C)C)C(=O)N[C@H](C(=O)NCC(N)=O)CSCC(=O)N[C@@H](Cc2ccc(O)cc2)C(=O)N(C)[C@@H](C)C(=O)N[C@@H](CC(N)=O)C(=O)N2CCC[C@H]2C(=O)N[C@@H](CNC(=O)OC(C)(C)C)C(=O)N[C@@H](CC(C)C)C(=O)N2C[C@H](O)C[C@H]2C(=O)N[C@@H](Cc2c[nH]c3ccccc23)C(=O)N[C@@H](CCNC(N)=O)C(=O)N[C@@H](Cc2cn(CC(=O)O)c3ccccc23)C(=O)N1C` [Example 1018] ({CH2CO}-Y[NMeA]NP[Dap](Boc)L[Hyp]W[Dab(CONH2)][Trp(1-CH2COOH)][NMeNle][NMeNle]LCG-NH2; thioether N-14), the IC50 amounted to 2.9 nM.

Turning to `CCCC[C@H]1C(=O)N(C)[C@@H](CCCC)C(=O)N[C@@H](CC(C)C)C(=O)N[C@H](C(=O)NCC(N)=O)CSCC(=O)N[C@@H](Cc2ccc(O)cc2)C(=O)N(C)[C@@H](C)C(=O)N[C@@H](CC(N)=O)C(=O)N2CCC[C@H]2C(=O)N[C@@H](CNC#N)C(=O)N[C@@H](CC(C)C)C(=O)N2C[C@H](O)C[C@H]2C(=O)N[C@@H](Cc2c[nH]c3ccccc23)C(=O)N[C@@H](CCNC#N)C(=O)N[C@@H](Cc2cn(CC(=O)O)c3ccccc23)C(=O)N1C` [Example 1019] ({CH2CO}-Y[NMeA]NP[X8]L[Hyp]W[X9][Trp(1-CH2COOH)][NMeNle][NMeNle]LCG-NH2; thioether N-14), the IC50 came out at 1.2 nM.

`CCCC[C@H]1C(=O)N(C)[C@@H](CCCC)C(=O)N[C@@H](CC(C)C)C(=O)N[C@H](C(=O)NCC(N)=O)CSCC(=O)N[C@@H](Cc2ccc(O)cc2)C(=O)N(C)[C@@H](C)C(=O)N[C@@H](CC(N)=O)C(=O)N2CCC[C@H]2C(=O)N[C@@H](CNC#N)C(=O)N[C@@H](CC(C)C)C(=O)N2C[C@H](O)C[C@H]2C(=O)N[C@@H](Cc2c[nH]c3ccccc23)C(=O)N[C@@H](CCNC#N)C(=O)N[C@@H](Cc2cn(CC(=O)OC)c3ccccc23)C(=O)N1C` [Example 1020] ({CH2CO}-Y[NMeA]NP[X8]L[Hyp]W[X9][Trp(1-CH2CO2Me)][NMeNle][NMeNle]LCG-NH2; thioether N-14) gave an IC50 of 7.1 nM.

`CCCC[C@H]1C(=O)N(C)[C@@H](CCCC)C(=O)N[C@@H](CC(C)C)C(=O)N[C@H](C(=O)NCC(N)=O)CSCC(=O)N[C@@H](Cc2ccc(O)cc2)C(=O)N(C)[C@@H](C)C(=O)N[C@@H](CC(N)=O)C(=O)N2CCC[C@H]2C(=O)N[C@@H](CNC#N)C(=O)N[C@@H](CC(C)C)C(=O)N2C[C@H](O)C[C@H]2C(=O)N[C@@H](Cc2c[nH]c3ccccc23)C(=O)N[C@@H](CCN)C(=O)N[C@@H](Cc2cn(CC(=O)O)c3ccccc23)C(=O)N1C` [Example 1021] ({CH2CO}-Y[NMeA]NP[X8]L[Hyp]W[Dab][Trp(1-CH2COOH)][NMeNle][NMeNle]LCG-NH2; thioether N-14) came in with a concentration for half-maximal inhibition (IC50) of 52 nM.

Regarding `CCCC[C@H]1C(=O)N(C)[C@@H](CCCC)C(=O)N[C@@H](CC(C)C)C(=O)N[C@H](C(=O)NCC(N)=O)CSCC(=O)N[C@@H](Cc2ccc(O)cc2)C(=O)N(C)[C@@H](C)C(=O)N[C@@H](CC(N)=O)C(=O)N2CCC[C@H]2C(=O)N[C@@H](CNS(=O)(=O)N(C)C)C(=O)N[C@@H](CC(C)C)C(=O)N2C[C@H](O)C[C@H]2C(=O)N[C@@H](Cc2c[nH]c3ccccc23)C(=O)N[C@@H](CCNS(=O)(=O)N(C)C)C(=O)N[C@@H](Cc2cn(CC(=O)O)c3ccccc23)C(=O)N1C` [Example 1022] ({CH2CO}-Y[NMeA]NP[X4]L[Hyp]W[X5][Trp(1-CH2COOH)][NMeNle][NMeNle]LCG-NH2; thioether N-14), the IC50 was 15 nM.

For `CCCC[C@H]1C(=O)N(C)[C@@H](CCCC)C(=O)N[C@@H](CC(C)C)C(=O)N[C@H](C(=O)NCC(N)=O)CSCC(=O)N[C@@H](Cc2ccc(O)cc2)C(=O)N(C)[C@@H](C)C(=O)N[C@@H](CC(N)=O)C(=O)N2CCC[C@H]2C(=O)N[C@@H](CNS(=O)(=O)N(C)C)C(=O)N[C@@H](CC(C)C)C(=O)N2C[C@H](O)C[C@H]2C(=O)N[C@@H](Cc2c[nH]c3ccccc23)C(=O)N[C@@H](CCN)C(=O)N[C@@H](Cc2cn(CC(=O)O)c3ccccc23)C(=O)N1C` [Example 1023] ({CH2CO}-Y[NMeA]NP[X4]L[Hyp]W[Dab][Trp(1-CH2COOH)][NMeNle][NMeNle]LCG-NH2; thioether N-14), the IC50 stood at 6.8 nM.

With `CCCC[C@H]1C(=O)N(C)[C@@H](CCCC)C(=O)N[C@@H](CC(C)C)C(=O)N[C@H](C(=O)NCC(N)=O)CSCC(=O)N[C@@H](Cc2ccc(O)cc2)C(=O)N(C)[C@@H](C)C(=O)N[C@@H](CC(N)=O)C(=O)N2CCC[C@H]2C(=O)N[C@@H](CNC(=O)SC(C)(C)C)C(=O)N[C@@H](CC(C)C)C(=O)N2C[C@H](O)C[C@H]2C(=O)N[C@@H](Cc2c[nH]c3ccccc23)C(=O)N[C@@H](CCNC(=O)OC)C(=O)N[C@@H](Cc2cn(CC(=O)O)c3ccccc23)C(=O)N1C` [Example 1024] ({CH2CO}-Y[NMeA]NP[Dap](X10)L[Hyp]W[Dab](Moc)[Trp(1-CH2COOH)][NMeNle][NMeNle]LCG-NH2; thioether N-14), the half-inhibitory concentration (IC50) was 4.7 nM.

Compound `CCCC[C@H]1C(=O)N(C)[C@@H](CCCC)C(=O)N[C@@H](CC(C)C)C(=O)N[C@H](C(=O)NCC(N)=O)CSCC(=O)N[C@@H](Cc2ccc(O)cc2)C(=O)N(C)[C@@H](C)C(=O)N[C@@H](CC(N)=O)C(=O)N2CCC[C@H]2C(=O)N[C@@H](CNC(=O)SC(C)(C)C)C(=O)N[C@@H](CC(C)C)C(=O)N2C[C@H](O)C[C@H]2C(=O)N[C@@H](Cc2c[nH]c3ccccc23)C(=O)N[C@@H](CCNC(=O)SC(C)(C)C)C(=O)N[C@@H](Cc2cn(CC(=O)OC)c3ccccc23)C(=O)N1C` [Example 1025] ({CH2CO}-Y[NMeA]NP[Dap](X10)L[Hyp]W[Dab](X10)[Trp(1-CH2CO2Me)][NMeNle][NMeNle]LCG-NH2; thioether N-14) came in with a concentration for half-maximal inhibition (IC50) of 6 nM.

In turn, `CCCC[C@H]1C(=O)N(C)[C@@H](CCCC)C(=O)N[C@@H](CC(C)C)C(=O)N[C@H](C(=O)NCC(N)=O)CSCC(=O)N[C@@H](Cc2ccc(O)cc2)C(=O)N(C)[C@@H](C)C(=O)N[C@@H](CC(N)=O)C(=O)N2CCC[C@H]2C(=O)N[C@@H](CNC(=S)NCC)C(=O)N[C@@H](CC(C)C)C(=O)N2C[C@H](O)C[C@H]2C(=O)N[C@@H](Cc2c[nH]c3ccccc23)C(=O)N[C@@H](CCNC(=S)NCC)C(=O)N[C@@H](Cc2cn(CC(=O)O)c3ccccc23)C(=O)N1C` [Example 1026] ({CH2CO}-Y[NMeA]NP[X14]L[Hyp]W[X15][Trp(1-CH2COOH)][NMeNle][NMeNle]LCG-NH2; thioether N-14) registered a half-maximal inhibitory concentration (IC50) of 4.5 nM.

Turning to `CCCC[C@H]1C(=O)N(C)[C@@H](CCCC)C(=O)N[C@@H](CC(C)C)C(=O)N[C@H](C(=O)NCC(N)=O)CSCC(=O)N[C@@H](Cc2ccc(O)cc2)C(=O)N(C)[C@@H](C)C(=O)N[C@H](CC(N)=O)C(=O)N2CCC[C@H]2C(=O)N[C@@H](CNC(=S)NC)C(=O)N[C@@H](CC(C)C)C(=O)N2C[C@H](O)C[C@H]2C(=O)N[C@@H](Cc2c[nH]c3ccccc23)C(=O)N[C@@H](CCNC(=S)NC)C(=O)N[C@@H](Cc2cn(CC(=O)O)c3ccccc23)C(=O)N1C` [Example 1027] ({CH2CO}-Y[NMeA][dN]P[X11]L[Hyp]W[X12][Trp(1-CH2COOH)][NMeNle][NMeNle]LCG-NH2; thioether N-14), the IC50 was determined as 2 nM.
